This is an account of results in patent EP0071535B1, “(4-(2 and/or 3-Thienylacetamido)-phenoxy)-hydroxyaminopropanes, their preparation, their therapeutic use and intermediates” (CARPIBEM (CENTRE D'ACTIVITE ET DE RECHERCHE PHARMACEUTIQUE …, priority 1981, dated 1983).

Assay [1] deals with effets β1 (augmentation de la force contractile du myocarde) de l'isoprénaline. The experiment in a line: β-blocking activity: inhibition of the β1 effects of intravenous isoprenaline in anaesthetised dogs. It counts as in vivo, chiens. Particulars: Canis lupus familiaris, iv, dog, inhibition given with negative sign, read-out: % d'inhibition des effets β1^(+) de l'Isoprénaline; for inhibition at 0.001 mg/kg: 0,001 mg/kg I.V.; for inhibition at 0.003 mg/kg: 0,003 mg/kg I.V.; for inhibition at 0.01 mg/kg: 0,010 mg/kg I.V.; for inhibition at 0.1 mg/kg: 0,100 mg/kg I.V. The method, then: (§1) Des chiens tout-venants mâles ou femelles sont anesthésiés au mébubarbital sodique (30 mg/kg I.V.) et ventilés artificiellement par une pompe Pesty RPP. Ils sont supplémentés en oxygène.
(§2) On mesure: • - la pression carotidienne systolique et diastolique • - la force contractile du myocarde.
(§3) Les signaux sont amplifiés et enregistrés sur Dynograph Beckman.
(§4) L'activité β bloquante adrénergique a été étudiée vis-à-vis des effets β1 (augmentation de la force contractile du myocarde) et des effets P2 (diminution de la pression artérielle disstolique) de l'isoprénaline administrée par voie intraveineuse.
(§5) On calcule le pourcentsge d'inhibition des effets β1 et des effets β2 de l'isoprénaline en fonction des doses (mg.kg I.V.) des différents exemples.
(§6) Les exemples sont injectés dans le veine saphène aux doses (exprimées en base) de: 0,0003 0,001 0,003 0,01 0,1 1,0 et 4,0 ou 8,0 mg.kg-1.

Assay [2] deals with effets β2 (diminution de la pression artérielle diastolique) de l'isoprénaline. Description: β-blocking activity: inhibition of the β2 effects of intravenous isoprenaline in anaesthetised dogs. Type of assay: in vivo, chiens. The settings on record: Canis lupus familiaris, iv, dog, inhibition given with negative sign, read-out: % d'inhibition des effets β2^⊕ de l'Isoprénaline; for inhibition at 0.001 mg/kg: 0,001 mg/kg I.V.; for inhibition at 0.003 mg/kg: 0,003 mg/kg I.V.; for inhibition at 0.01 mg/kg: 0,010 mg/kg I.V.; for inhibition at 0.1 mg/kg: 0,100 mg/kg I.V. As for the experimental part: as §1, §2, §3, §4, §5, §6

Assay [3] concerns rat génétiquement hypertendu: Rat OKAMOTO. The experiment in a line: Antihypertensive activity in spontaneously hypertensive rats (tail-cuff systolic pressure and heart rate after oral dosing). It counts as in vivo. The method, then: Des rats mâles âgés de 13 à 21 semaines présentant une hypertension spontanée génétiquement transmissible (souche OKAMOTO provenance IFFA CREDO) sont placés dans une enceinte thermostatée à 38°C. Les rats sont laissés en situation libre. La pression artérielle est mesurée par un sphygmomanomètre Narco Biosystem. Un manchon est placé à la base de la queue et un détecteur enregistre le pouls en aval du manchon. Celui-ci est gonflé jusqu'à suppression du pouls il est ensuite progressivement dégonflé. La pression mesurée à la reprise des battements cardiaques est la pression artérielle systolique. On calcule la fréquence cardiaque à partir de l'enregistrement du pouls artériel. Les produits à étudiar sont mis en suspension el administrés par voie orale sous un volume de 1 ml pour 100 g de poids corporel. Les mesures sont répétées à intervalles réguliers.
Les valeurs moyennes avant traitement pour les différents lots de rats sont pour la pression artérielle systolique de 190 à 200 mmHg et pour la fréquence cardiaque de 305 à 350 battements par minute.
Le tableau III ci-après donne la moyenne des variations de la pression systolique (mmHg) de la fréquence cardisque (battements/minute) et les écarts type à la moyenne obtenus 1 heure 3 heures et 5 heures après administration orale.

As usually defined, the inhibition is the drop in the measured response relative to a control, in per cent. As for `CC(C)NCC(O)COc1ccc(NC(=O)Cc2ccsc2)cc1Br` (stereo not shown) [exemple 42, 1-[2-bromo 4-(3-thiénylacétamido)phénoxy] 3-isopropylamino 2-propanol], in assay [1], the inhibition at 0.001 mg/kg was -29%, the inhibition at 0.003 mg/kg is -51%, the inhibition at 0.01 mg/kg is -70% and the inhibition at 0.1 mg/kg is -100%. In addition, in assay [2], the inhibition at 0.001 mg/kg was determined as 0%, the inhibition at 0.003 mg/kg came to 0%, the inhibition at 0.01 mg/kg is 0% and the inhibition at 0.1 mg/kg turned out to be 0%. Also, in assay [3] (64 mg.kg^-1 V.O), the “Fréquence cardiaque Δ (battements/min) T+1 heure m (sm)” value is “+50 (19) battements/min”, the “Pression systolique Δ (mmHg) T+1 heure m (sm)” value is given as -43 (8) mmHg, the “Fréquence cardiaque Δ (battements/min) T+3 heures m (sm)” value is given as “+17 (12) battements/min” and the “Pression systolique Δ (mmHg) T+3 heures m (sm)” value is given as -55 (7) mmHg. For the same compound, in assay [3] (64 mg.kg^-1 V.O), the “Fréquence cardiaque Δ (battements/min) T+5 heures m (sm)” value is given as “+33 (12) battements/min” and the “Pression systolique Δ (mmHg) T+5 heures m (sm)” value is -51 (10) mmHg.
Consider `CC(C)(C)NCC(O)COc1ccc(NC(=O)Cc2cccs2)cc1Cl` (stereo not shown) [exemple 43, 1-[2-chloro 4-(2-thiénylacétamido)phénoxy] 3-terbutylamino 2-propanol], for which, in assay [1], the inhibition at 0.001 mg/kg is -18%, the inhibition at 0.003 mg/kg was -49%, the inhibition at 0.01 mg/kg is -82% and the inhibition at 0.1 mg/kg was -100%. In assay [2], the inhibition at 0.001 mg/kg was determined as 0%, the inhibition at 0.003 mg/kg worked out at 0%, the inhibition at 0.01 mg/kg came to 0% and the inhibition at 0.1 mg/kg was -22%. In assay [3] (64 mg.kg^-1 V.O), the “Fréquence cardiaque Δ (battements/min) T+1 heure m (sm)” value was “+13 (20) battements/min”, the “Pression systolique Δ (mmHg) T+1 heure m (sm)” value is -29 (9) mmHg, the “Fréquence cardiaque Δ (battements/min) T+3 heures m (sm)” value is given as “+23 (7) battements/min” and the “Pression systolique Δ (mmHg) T+3 heures m (sm)” value was -44 (6) mmHg. In assay [3] (64 mg.kg^-1 V.O), the “Fréquence cardiaque Δ (battements/min) T+5 heures m (sm)” value is reported as “+30 (12) battements/min” and the “Pression systolique Δ (mmHg) T+5 heures m (sm)” value is given as -44 (4) mmHg.
On to `CC(C)NCC(O)COc1ccc(NC(=O)Cc2cccs2)cc1Cl` (stereo not shown) [exemple 44, 1-[2-chloro 4-(2-thiénylacétamido)phénoxy] 3-isopropylamino 2-propanol], for which, in assay [1], the inhibition at 0.001 mg/kg was -27%, the inhibition at 0.003 mg/kg was -46%, the inhibition at 0.01 mg/kg is -67% and the inhibition at 0.1 mg/kg is -82%. Besides, in assay [2], the inhibition at 0.001 mg/kg was -11%, the inhibition at 0.003 mg/kg was -22%, the inhibition at 0.01 mg/kg is -18% and the inhibition at 0.1 mg/kg was -15%. In addition, in assay [3] (128 mg.kg^-1 V.O), the “Fréquence cardiaque Δ (battements/min) T+1 heure m (sm)” value is “+68 (5) battements/min”, the “Pression systolique Δ (mmHg) T+1 heure m (sm)” value is recorded as -37 (11) mmHg, the “Fréquence cardiaque Δ (battements/min) T+3 heures m (sm)” value is “+45 (12) battements/min” and the “Pression systolique Δ (mmHg) T+3 heures m (sm)” value was -48 (11) mmHg. In assay [3] (128 mg.kg^-1 V.O), the “Fréquence cardiaque Δ (battements/min) T+5 heures m (sm)” value is reported as “+52 (11) battements/min” and the “Pression systolique Δ (mmHg) T+5 heures m (sm)” value was -53 (11) mmHg.
In the case of `CC(C)(C)NCC(O)COc1ccc(NC(=O)Cc2ccsc2)cc1Cl` (stereo not shown) [exemple 45, 1-[2-chloro 4-(3-thiénylacétamido)phénoxy] 3-terbutylamino 2-propanol], in assay [1], the inhibition at 0.001 mg/kg is -30%, the inhibition at 0.003 mg/kg is -60%, the inhibition at 0.01 mg/kg is -86% and the inhibition at 0.1 mg/kg is -100%. For the same compound, in assay [2], the inhibition at 0.001 mg/kg was -12%, the inhibition at 0.003 mg/kg was -5%, the inhibition at 0.01 mg/kg is -23% and the inhibition at 0.1 mg/kg is -33%. Further, in assay [3] (64 mg.kg^-1 V.O), the “Fréquence cardiaque Δ (battements/min) T+1 heure m (sm)” value is reported as “+45 (6) battements/min”, the “Pression systolique Δ (mmHg) T+1 heure m (sm)” value was -32 (5) mmHg, the “Pression systolique Δ (mmHg) T+3 heures m (sm)” value is -14 (9) mmHg and the “Fréquence cardiaque Δ (battements/min) T+5 heures m (sm)” value was “+30 (10) battements/min”. Further, the “Pression systolique Δ (mmHg) T+5 heures m (sm)” value in assay [3] (64 mg.kg^-1 V.O) is on record as -28 (5) mmHg.
